One data set concerns HIV-1 BaL. Briefly: TZM-bl antiviral assay, wild type HIV-1 Ba-L. In kind it is cell-based. Particulars: Human immunodeficiency virus 1, BAL; TZM-bl cells, Ba-L wild type; read-out: Antiviral activity-wild type viruses EC50 TZM-bI Ba-L. Here is the method: (§1) The JC53-BL cell line, also known as the TZM-bl cell line (NIH AIDS Research and Reference Reagent Program, Germantown, USA), was used for the evaluation of anti-HIV activity. TZM-bl cells were cultured in Dulbecco's […] (DMEM) (Lonza) containing 10% heat-inactivated FBS and 50 μg gentamycin/mL at 37° C. in a humidified 5% CO2, 95% air environment. Twice a week the cells were treated with 0.25% trypsin-1 mM EDTA (Lonza) for 10 minutes. The resulting cell suspension was washed with an equivalent amount of TZM-bl medium and subsequently seeded in a T75 culture flask (Greiner Bio-One, Germany) at 10^6 cells in 20 mL medium.
(§2) The antiviral activity of the newly designed compounds was measured by pre-incubating ten thousand TZM-bl cells (at 10^5 cells/mL in culture medium supplemented with 30 μg/mL DEAE dextran) in a 96-well plate for 30 minutes at 37° C., 5% CO2 in the presence or absence of serial dilutions of the respective compound. Subsequently, 200 TCID50 of HIV-1 BaL was added to each well and cultures were incubated for 48 hours before quantifying luciferase activity, using a TriStar LB941 luminometer (Berthold Technologies GmbH & Co. KG, Bad Wildbad, Germany). Each condition was evaluated in triplicate wells and in at least two independent experiments. The antiviral activity of the compound was expressed as the percentage of viral inhibition compared to the untreated controls and subsequently plotted against the compound concentration.
(§3) The target compounds are evaluated for their anti-HIV-1 activity and cytotoxicity. In a primary screen, the anti-HIV activity against the laboratory strain Ba-L and against a primary subtype C isolate was determined in the TZM-bl cell line. Cellular toxicity on TZM-bl cells was evaluated using WST-1. […] In addition, the activity against NNRTI-resistant viruses (V106A, Y181C, L100I+K103N, L100I+E138K+T369I and K101E+K103N+V108VI+V179M+Y181C+E138Q) was tested. Diarylpyrimidines (DAPY) TMC120, TMC125 and TMC278 were used as reference compounds.

A further data set in a line: in vitro. The class given is cell-based. Particulars: human, Cytotoxicity CC50 TZM-bI.
Text: The Water Soluble Tetrazolium-1 (WST-1) Cell Proliferation Assay is a colorimetric assay for the measurement of cell proliferation and viability. The assay is based on the cleavage of the tetrazolium salt WST-1 (4-[3-(4-iodophenyl)-2-(4-nitrophenyl)-2H-5-tetrazolio]-1,3-benzene disulfonate) to a formazan dye by a complex cellular mechanism. This bioreduction is largely dependent on the glycolytic production of NAD(P)H in viable cells. Therefore, the amount of formazan dye formed correlates directly to the number of viable cells in the culture, and can be quantified by measuring the absorbance at 450 nm in a multiwell plate reader. The greater the number of viable cells, the greater the amount of formazan dye produced following the addition of WST-1. Cytotoxicity of each compound was evaluated using this WST-1 viability assay, according to the manufacturer's instructions (Roche, Vilvoorde, Belgium).
Briefly, ten thousand TZM-bl cells were seeded in a 96-well plate and cultured for 2 days in the presence of a serial dilution of compound. After this 48 h exposure, Cell Proliferation Reagent, WST-1, was added and absorbance at 450 nm was quantified after 90 min using a microplate reader (BioRad, Tokio, Japan). Each compound was tested in three replicate wells and in at least two independent experiments.
as §3

Data set [1] deals with Ba-L K101E + K103N + V108VI + V179M + Y181C + E138Q. Briefly: Antiviral activity, NNRTI-resistant virus K101E+K103N+V108VI+V179M+Y181C+E138Q. In kind it is cell-based, HIV-1. Particulars: for FC (*): Ba-L, * = K101E + K103N + V108VI + V179M + Y181C + E138Q; for pEC50: Human immunodeficiency virus 1, BAL, read-out: Antiviral activity-NNRTI-resistant viruses EC50 Ba-L *. Here is the method: (§4) The target compounds are evaluated for their anti-HIV-1 activity and cytotoxicity. In a primary screen, the anti-HIV activity against the laboratory strain Ba-L and against a primary subtype C isolate was determined in the TZM-bl cell line. Cellular toxicity on TZM-bl cells was evaluated using WST-1. Based on the primary screening results, the target compound was further evaluated for anti-HIV activity in different primary cells, including peripheral blood mononuclear cells, dendritic cells and CD4+ T lymphocytes. In addition, the activity against NNRTI-resistant viruses (V106A, Y181C, L100I+K103N, L100I+E138K+T369I and K101E+K103N+V108VI+V179M+Y181C+E138Q) was tested. Diarylpyrimidines (DAPY) TMC120, TMC125 and TMC278 were used as reference compounds.

A further data set has as its system Ba-L V106A. Briefly: Antiviral activity, NNRTI-resistant virus V106A. In kind it is cell-based, HIV-1. The following applies: for FC (V106A): Ba-L V106A; for pEC50: Human immunodeficiency virus 1, BAL, read-out: Antiviral activity-NNRTI-resistant viruses EC50 Ba-L V106A. Here is the method: as §3
A further data set concerns VI829 L100I+E138K+T369I. Briefly: Antiviral activity, NNRTI-resistant virus L100I+E138K+T369I. In kind it is cell-based, HIV-1. Particulars: VI829, ** = L1001 + E138K + T3691. The procedure:
as §4

The subject of another data set is VI829. As to the kind of experiment: TZM-bl antiviral assay, wild type VI829 (primary subtype C isolate). In kind it is cell-based, HIV-1. Particulars: Human immunodeficiency virus 1; TZM-bl cells, VI829 wild type; read-out: Antiviral activity-wild type viruses EC50 TZM-bI VI829. The procedure: as §1, §2, §3
The next data set deals with VI829 Y181C. Briefly: Antiviral activity, NNRTI-resistant virus Y181C. The class given is cell-based, HIV-1. Particulars: for pEC50: Human immunodeficiency virus 1, read-out: Antiviral activity-NNRTI-resistant viruses EC50 VI829 Y181C; for FC (Y181C): VI829 Y181C. Here is the method:
as §3

Another data set deals with VI829 L100I+K103N. As to the kind of experiment: Antiviral activity, NNRTI-resistant virus L100I+K103N. The class given is cell-based, HIV-1. The following applies: for pEC50: Human immunodeficiency virus 1, read-out: Antiviral activity-NNRTI-resistant viruses EC50 VI829 L100I+K103N; for FC (L100I+K103N): VI829 L100I+K103N. Here is the method: as §3

pEC50: −log10 of the molar value. A value given as a limit tells only on which side of the number the result lay.

As usually defined, the pEC50 is the negative decadic logarithm of the EC50, by convention in mol/L. In general, CC50 refers to the concentration that lowers cell viability or growth by half. A higher CC50 goes with better tolerance by the cells.

Regarding `CNc1nc(Nc2ccc(C#N)cc2)nc(Nc2c(C)cc(C=CC#N)cc2C)n1` [T4, 4-((4-((4-(2-cyanovinyl)-2,6-dimethylphenyl)amino)-6-(methylamino)-1,3,5-triazin-2-yl)amino)benzonitrile], the pEC50 with HIV-1 BaL is 8.77; in data set [1] it was 7.18. Further, in the data set “in vitro”, the CC50 at 48 h worked out at 5910 nM. In data set [1], the “FC (*)” value is reported as 39.

On to `Cc1cc(C=CC#N)cc(C)c1Nc1nc(Nc2ccc(C#N)cc2)nc(N(C)C)n1` [T5, 4-((4-((4-(2-cyanovinyl)-2,6-dimethylphenyl)amino)-6-(dimethylamino)-1,3,5-triazin-2-yl)amino)benzonitrile], for which the pEC50 in the data set with HIV-1 BaL was 8.24; in the data set on Ba-L V106A, 7.92; in the data set with VI829, 8.36; in the data set on VI829 Y181C, 7.57; in data set [1], 6.34; in the data set with VI829 L100I+K103N it was 7.13. Also, the “FC (V106A)” value in the data set on Ba-L V106A was determined as 2. The “FC (**)” value in the data set on VI829 L100I+E138K+T369I was 31. Further, in the data set “in vitro”, the CC50 at 48 h is 8060 nM. Moreover, in the data set with VI829 Y181C, the “FC (Y181C)” value was 6. The “FC (*)” value in data set [1] was found to be 78. Also, in the data set on VI829 L100I+K103N, the “FC (L100I+K103N)” value came to 17.

On to `Cc1cc(C=CC#N)cc(C)c1Nc1nc(Nc2ccc(C#N)cc2)nc(N2CCCCC2)n1` [T7, 4-((4-((4-(2-cyanovinyl)-2,6-dimethylphenyl)amino)-6-(piperidin-1-yl)-1,3,5-triazin-2-yl)amino)benzonitrile], for which the pEC50 is 7.74 with HIV-1 BaL; 6.90 with Ba-L V106A; 7.72 with VI829; 6.66 in the data set on VI829 Y181C; below 6.00 in data set [1]; below 6.00 in the data set with VI829 L100I+K103N. Further, in the data set with Ba-L V106A, the “FC (V106A)” value is listed as 7. The “FC (**)” value in the data set on VI829 L100I+E138K+T369I is listed as above 50. Besides, the CC50 at 48 h in the data set “in vitro” was above 100000 nM. Also, in the data set with VI829 Y181C, the “FC (Y181C)” value came out at 12. The “FC (*)” value in data set [1] was above 55. For the same compound, the “FC (L100I+K103N)” value in the data set on VI829 L100I+K103N was above 50.

On to `Cc1cc(C=CC#N)cc(C)c1Nc1nc(Nc2ccc(C#N)cc2)nc(N2CCOCC2)n1` [T8, 4-((4-((4-(2-cyanovinyl)-2,6-dimethylphenyl)amino)-6-morpholino-1,3,5-triazin-2-yl)amino)benzonitrile], for which the pEC50 in the data set with HIV-1 BaL was 8.15. Further, the CC50 at 48 h in the data set “in vitro” was found to be 11400 nM. In addition, in data set [1], the “FC (*)” value came out at 89 and the negative-log EC50 (pEC50) was 6.20.

As to `Cc1cc(C=CC#N)cc(C)c1Nc1nc(Nc2ccc(C#N)cc2)nc(N2CCN(C)CC2)n1` [T9, 4-((4-((4-(2-cyanovinyl)-2,6-dimethylphenyl)amino)-6-(4-methylpiperazin-1-yl)-1,3,5-triazin-2-yl)amino)benzonitrile], the pEC50 with HIV-1 BaL was 8.07; in data set [1], 6.50. Further, the CC50 at 48 h in the data set “in vitro” came to 21200 nM. The “FC (*)” value in data set [1] was found to be 37.

Regarding `N#CC=Cc1cc(F)c(Nc2nc(N)nc(Nc3ccc(C#N)cc3)n2)c(F)c1` [T10, 4-((4-amino-6-((4-(2-cyanovinyl)-2,6-difluorophenyl)amino)-1,3,5-triazin-2-yl)amino)benzonitrile], the values for the pEC50 (with HIV-1 BaL; in data set [1]) were 9.28 and 6.23, respectively. The compound further had a 50% cytotoxic concentration (CC50) at 48 h in “in vitro” of 21400 nM. For the same compound, in data set [1], the “FC (*)” value turned out to be 1113.

With `Cc1cc(C=CC#N)cc(C)c1Oc1nc(N)nc(Nc2ccc(C#N)cc2)n1` [T11, 4-((4-amino-6-(4-(2-cyanovinyl)-2,6-dimethylphenoxy)-1,3,5-triazin-2-yl)amino)benzonitrile], the pEC50 in the data set on HIV-1 BaL was 8.96; with Ba-L V106A, 8.60; in the data set with VI829 it was 9.19; in the data set on VI829 Y181C, 8.39; in data set [1], 7.21; with VI829 L100I+K103N it was 7.77. The “FC (V106A)” value in the data set on Ba-L V106A was found to be 2. Further, in the data set on VI829 L100I+E138K+T369I, the “FC (**)” value came out at 167. The compound further returned a cytotoxic concentration (CC50) at 48 h in the data set “in vitro” of 19100 nM. For the same compound, the “FC (Y181C)” value in the data set on VI829 Y181C is given as 6. Moreover, the “FC (*)” value in data set [1] came to 56. Moreover, in the data set with VI829 L100I+K103N, the “FC (L100I+K103N)” value is reported as 27.

Take `CNc1nc(Nc2ccc(C#N)cc2)nc(Oc2c(C)cc(C=CC#N)cc2C)n1` [T12, 4-((4-(4-(2-cyanovinyl)-2,6-dimethylphenoxy)-6-(methylamino)-1,3,5-triazin-2-yl)amino)benzonitrile]: the pEC50 in the data set with HIV-1 BaL is 8.80; in the data set on Ba-L V106A it was 8.19; with VI829, 8.80; in the data set with VI829 Y181C it was 8.13; in data set [1] it was 7.11; in the data set on VI829 L100I+K103N, 7.62. Also, the “FC (V106A)” value in the data set on Ba-L V106A is 4. Moreover, the “FC (**)” value with VI829 L100I+E138K+T369I is listed as 44. Besides, in the data set “in vitro”, the CC50 at 48 h is 20000 nM. Also, the “FC (Y181C)” value in the data set on VI829 Y181C worked out at 5. For the same compound, the “FC (*)” value in data set [1] is given as 48. Also, in the data set on VI829 L100I+K103N, the “FC (L100I+K103N)” value was 15.

In the case of `Cc1cc(C=CC#N)cc(C)c1Oc1nc(Nc2ccc(C#N)cc2)nc(N(C)C)n1` [T13, 4-((4-(4-(2-cyanovinyl)-2,6-dimethylphenoxy)-6-(dimethylamino)-1,3,5-triazin-2-yl)amino)benzonitrile], the negative logarithm of the EC50 (pEC50) in the data set on HIV-1 BaL was 8.47. In addition, the CC50 at 48 h in the data set “in vitro” was 7850 nM. In data set [1], the “FC (*)” value was determined as 231 and the pEC50 is 6.10.

`Cc1cc(C=CC#N)cc(C)c1Oc1nc(Nc2ccc(C#N)cc2)nc(N2CCCCC2)n1` [T14, 4-((4-(4-(2-cyanovinyl)-2,6-dimethylphenoxy)-6-(piperidin-1-yl)-1,3,5-triazin-2-yl)amino)benzonitrile]: the pEC50 in the data set with HIV-1 BaL was 7.68. This compound also showed a CC50 at 48 h in “in vitro” above 100000 nM. For the same compound, in data set [1], the “FC (*)” value is recorded as above 47 and the pEC50 was below 6.00.

Source of the values: patent US9650348B2, “Triazines with suitable spacers for treatment and/or prevention of HIV infections” (Universiteit Antwerpen, priority 2012, dated 2017).
